Patent US7155346B2, “Crystal structure of yqeJ and uses thereof” (Wyeth, priority 2001, dated 2006)

Columns and labels:
[1] = target: T1, B. subtilis NaMN AT (yqeJ) (Bacillus subtilis, UniProt P54455); experiment: Continuous coupled assay of the forward reaction (EnzChek pyrophosphate / purine nucleoside phosphorylase); format: biochemical; design: made in house; host or cells: E. coli BL21(DE3), vector pML208 (modified pET16b)
T1 sequence (P54455 with tags, fused parts or gaps): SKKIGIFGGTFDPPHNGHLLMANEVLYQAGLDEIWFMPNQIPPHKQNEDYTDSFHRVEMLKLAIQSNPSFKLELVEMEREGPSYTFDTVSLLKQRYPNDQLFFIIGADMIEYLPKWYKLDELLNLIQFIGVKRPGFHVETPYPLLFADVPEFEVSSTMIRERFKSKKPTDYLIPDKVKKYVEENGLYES
Source text: Continuous assay. A continuous assay to monitor the reaction in the forward direction was based upon the EnzChek pyrophosphate assay from Molecular Probes (Eugene Oreg.) In this assay, inorganic pyrophosphate produced in the forward reaction of yqeJ is cleaved by inorganic pyrophosphatase to phosphate, which is used by the second coupling enzyme, purine nucleoside phosphorylase (PNP), to convert the chromogenic substrate 2-amino-6-mercapto-7-methylpurine ribonucleoside (MESG) to ribose-1-phosphate and 2-amino-6-mercapto-7methylpurine (E360=11,000 M^−1cm^−1). The reaction conditions were 20 mM Hepes pH 7.5, 10 mM MgCl2, 0.2 mM MESG, 1 U PNP, 0.01 U inorganic pyrophosphatase, and 0.03 μg/mL yqeJ. The reaction volume was 125 μL and was carried out in a 96 well plate at room temperature using spectamax384 plus plate reader recording continuously at 360 nm (Molecular Devices, Sunnyvale Calif.). For the KM determinations, NaMN was varied from 25 to 500 μM with ATP held at 2 mM and ATP was varied from 50 to 1000 μM with NaMN held constant at 1 mM. All kinetic constants were determined from non-linear fits of the experimental data using the enzyme kinetic module of Sigmaplot 7.0 (SPSS, Inc. San Rafael Calif.). The reaction conditions were the same for the KM determinations for NMN except the MgCl2 concentration was increased to 50 mM and the yqeJ concentration was increased to 75 μg/mL due to the lower activity against this substrate. […] The data was fit to a model of substrate inhibition using the equation: v=Vmax/(1+KM/S+S/Ki). […] NMN was varied from 0.5 to 10 mM with ATP held constant at 0.6 mM. The kinetic constants of yqeJ using NMN and ATP substrates also was determined with a second coupled assay system, one coupling NAD production to its reduction by alcohol dehyrogenase. This assay was described by Balducci et al (Balducci et al, 1995a) and has been used to characterize other NMN ATase. Using this assay, very similar values of KM and Vmax for NMN were obtained as was determined with the PNP coupled assay described above. The alcohol dehyrogenase coupled assay was not suitable to assays NaMN as a substrate, presumably because NaAD is not a good substrate for alcohol dehydrogenase.

[2] = target: T1, B. subtilis NaMN AT (yqeJ); experiment: Back reaction coupled enzyme assay (hexokinase / glucose-6-phosphate dehydrogenase)
Source text: The back reaction for yqeJ NaMN AT was monitored using the coupled enzyme assay of hexokinase and glucose-6-phosphate dehydrogenase (from yeast). […] The ATP is then used by hexokinase to phosphorylate glucose to give glucose-6-phosphate and ADP. Glucose-6-phosphate is oxidized to 6-phospho-glucono-δ-lactone by glucose-6-phosphate dehydrogenase and NADP is reduced to NADPH. The assay is followed by the absorbance of NADPH at 340 nm. Glucose-6-phosphate dehydrogenase from baker's yeast was used because this enzyme prefers NADP to NAD as a co-substrate. Assay conditions were: 20 mM HEPES pH 7.5, 50 mM MgCl2, 1 mM NaPPi, 10 mM KCl, 5 U hexokinase, 5 U glucose-6-phosphate dehydrogenase, 1 mM glucose, 0.5 mM NADP+.

yqeJ NaMN AT = target: T2, yqeJ NaMN AT (Bacillus subtilis, UniProt P54455); experiment: Discontinuous HPLC adenylyl transferase assay; format: biochemical; conditions: 30 minutes, 37° C.
T2 construct: made in house; host or cells: E. coli BL21(DE3), vector pML208 (modified pET16b)
Procedure: FIGS. 3A, 3B, 3C and 3D provides the results of HPLC analysis of yqeJ NaMN AT adenylyl transferase activity. 0.36 mg/ml yqeJ NaMN AT was incubated with 1 mM ATP and 1 mM NaMN (3A) or 1 mM NMN (3B) for 30 minutes.
Discontinuous HPLC assay. The discontinuous HPLC assay is based upon the assays published by Mehl et al. (12) and Balducci et al. (18). Reaction conditions were 20 mM Hepes, pH 7.4, 10 mM MgCl2, and 0.36 or 0.18 mg/ml yqeJ protein incubated at 37° C. For the forward reaction, the incubations contained 1 mM ATP and 1 mM NaMN or NMN. […] The reactants and products were separated by chromatography on a 3.9×150 mm C18 column (Novapack 5 μm, Waters Inc). Buffer A 100 mM potassium phosphate pH 7.5. Buffer B 100 mM potassium phosphate pH 7.5 in 20% MeOH. The elution conditions were: 0 to 3 min in 100% A, 3.0 to 3.1 min to 100% B, 3.1 to 7 min 100% B. The absorbance of reactants and products was detected at 254 nm.

[3] = substrate: NC(=O)c1ccc[n+]([C@@H]2O[C@H](COP(=O)([O-])OP(=O)(O)OC[C@H]3O[C@@H](n4cnc5c(N)ncnc54)[C@H](O)[C@@H]3O)[C@@H](O)[C@H]2O)c1; experiment: purified protein, by the assay type; conditions: other: back reaction; at subsaturating concentrations of PPi (1 mM); pH 7.5
Source text: The back reaction for yqeJ NaMN AT was monitored using the coupled enzyme assay of hexokinase and glucose-6-phosphate dehydrogenase (from yeast). […] The ATP is then used by hexokinase to phosphorylate glucose to give glucose-6-phosphate and ADP. Glucose-6-phosphate is oxidized to 6-phospho-glucono-δ-lactone by glucose-6-phosphate dehydrogenase and NADP is reduced to NADPH. The assay is followed by the absorbance of NADPH at 340 nm. Glucose-6-phosphate dehydrogenase from baker's yeast was used because this enzyme prefers NADP to NAD as a co-substrate. Assay conditions were: 20 mM HEPES pH 7.5, 50 mM MgCl2, 1 mM NaPPi, 10 mM KCl, 5 U hexokinase, 5 U glucose-6-phosphate dehydrogenase, 1 mM glucose, 0.5 mM NADP+. […] At high concentration of NaPPi a precipitate was observed.

[4] = substrate: O=P(O)(O)OP(=O)(O)O; experiment: purified protein, by the assay type; conditions: other: back reaction; at saturating concentrations of NaAD (500 μM); pH 7.5
[5] = substrate: NC(=O)c1ccc[n+]([C@@H]2O[C@H](COP(=O)([O-])O)[C@@H](O)[C@H]2O)c1; experiment: Continuous coupled assay of the forward reaction (EnzChek pyrophosphate / purine nucleoside phosphorylase); format: biochemical, Bacillus subtilis; conditions: other: forward reaction; mononucleotide substrate varied, ATP held constant (2 mM for NaMN, 0.6 mM for NMN); NMN fit to substrate inhibition equation; pH 7.5
Source text: Continuous assay. A continuous assay to monitor the reaction in the forward direction was based upon the EnzChek pyrophosphate assay from Molecular Probes (Eugene Oreg.) In this assay, inorganic pyrophosphate produced in the forward reaction of yqeJ is cleaved by inorganic pyrophosphatase to phosphate, which is used by the second coupling enzyme, purine nucleoside phosphorylase (PNP), to convert the chromogenic substrate 2-amino-6-mercapto-7-methylpurine ribonucleoside (MESG) to ribose-1-phosphate and 2-amino-6-mercapto-7methylpurine (E360=11,000 M^−1cm^−1). The reaction conditions were 20 mM Hepes pH 7.5, 10 mM MgCl2, 0.2 mM MESG, 1 U PNP, 0.01 U inorganic pyrophosphatase, and 0.03 μg/mL yqeJ. The reaction volume was 125 μL and was carried out in a 96 well plate at room temperature using spectamax384 plus plate reader recording continuously at 360 nm (Molecular Devices, Sunnyvale Calif.). […] All kinetic constants were determined from non-linear fits of the experimental data using the enzyme kinetic module of Sigmaplot 7.0 (SPSS, Inc. San Rafael Calif.). […] The kinetic constants of yqeJ using NMN and ATP substrates also was determined with a second coupled assay system, one coupling NAD production to its reduction by alcohol dehyrogenase. […] Using this assay, very similar values of KM and Vmax for NMN were obtained as was determined with the PNP coupled assay described above. […]

[6] = forward reaction, at saturating concentrations of NaMN
[7] = back reaction, at subsaturating concentrations of PPi (1 mM)
[8] = forward reaction: 1 mM ATP and 1 mM substrate, 0.36 mg/ml yqeJ

In the case of `Nc1ncnc2c1ncn2[C@@H]1O[C@H](COP(=O)(O)OP(=O)(O)OP(=O)(O)O)[C@@H](O)[C@H]1O` [ATP], the Km [1, 6] is reported as 135 µM and the Vmax [1, 6] is reported as 10.1 ± 0.4 µmol/min/mg.

With `Nc1ncnc2c1ncn2[C@@H]1O[C@H](COP(=O)(O)OP(=O)(O)OC[C@H]2O[C@@H]([n+]3cccc(C(=O)O)c3)[C@H](O)[C@@H]2O)[C@@H](O)[C@H]1O` [NAAD, nicotinic acid adenine dinucleotide] the Km [2, 7] was 6.8 µM, the Vmax [2, 7] was 2.8 ± 0.2 µmol/min/mg and the “preference (Vmax/KM ratio) for nicotinic acid over nicotinamide containing substrate” value ([2]; reverse reaction, NaAD over NAD) was 2,000 to 1. For the same molecule, the “conversion of substrate by yqeJ, detected by HPLC” value (“conversion of substrate by yqeJ” for short) (yqeJ NaMN AT; reverse reaction: 1 mM sodium pyrophosphate and 0.5 mM substrate, 0.18 mg/ml yqeJ) was “converted to NaMN and ATP”.

With `O=C(O)c1ccc[n+]([C@@H]2O[C@H](COP(=O)(O)O)[C@@H](O)[C@H]2O)c1` [NaMN, nicotinic acid mononucleotide] the “conversion of substrate by yqeJ” value (yqeJ NaMN AT; [8]) was “formation of a new peak as detected by HPLC that eluted with the NaAD standard”, the “preference (Vmax/KM ratio) for nicotinic acid over nicotinamide containing substrate” value ([1]; forward reaction, NaMN over NMN) was 12,900 to 1 and the Vmax ([1]; forward reaction, mononucleotide substrate varied, ATP held constant) was 11.1 ± 0.7 µmol/min/mg. The Km ([1]; forward reaction, mononucleotide substrate varied, ATP held constant (2 mM for NaMN, 0.6 mM for NMN), NMN fit to substrate inhibition equation) was 43 µM.

For `NC(=O)c1ccc[n+]([C@@H]2O[C@H](COP(=O)([O-])O)[C@@H](O)[C@H]2O)c1` [NMN, Nicotinamide Mononucleotide], the “conversion of substrate by yqeJ” value (yqeJ NaMN AT; [8]) was “a new peak that eluted with NAD” and the Ki [1] was 17 mM.

B1: B. subtilis NaMN AT (yqeJ) (Bacillus subtilis subsp. subtilis str. 168) (protein)
chain: SKKIGIFGGTFDPPHNGHLLMANEVLYQAGLDEIWFMPNQIPPHKQNEDYTDSFHRVEMLKLAIQSNPSFKLELVEMEREGPSYTFDTVSLLKQRYPNDQLFFIIGADMIEYLPKWYKLDELLNLIQFIGVKRPGFHVETPYPLLFADVPEFEVSSTMIRERFKSKKPTDYLIPDKVKKYVEENGLYES
notes: made in house; host or cells: E. coli BL21(DE3), vector pML208 (modified pET16b)
B1 gave a Km [3] of 1700 ± 200 µM, a Vmax [3] of 0.34 µmol/min/mg and a Km [4] of 4200 ± 600 µM. For the same molecule, the Km [5] was 2300 ± 200 µM and the Vmax [5] was 0.054 µmol/min/mg.
